Results as given in US9365522B2, “Pyrazole amide derivative” (AMGEN INC., priority 2015, dated 2016).

Molecular target: T1, human RORγ-LBD (Homo sapiens, UniProt P51449)
T1 construct: made in house; host or cells: E. coli (BL-21)
T1 sequence (P51449 262-518): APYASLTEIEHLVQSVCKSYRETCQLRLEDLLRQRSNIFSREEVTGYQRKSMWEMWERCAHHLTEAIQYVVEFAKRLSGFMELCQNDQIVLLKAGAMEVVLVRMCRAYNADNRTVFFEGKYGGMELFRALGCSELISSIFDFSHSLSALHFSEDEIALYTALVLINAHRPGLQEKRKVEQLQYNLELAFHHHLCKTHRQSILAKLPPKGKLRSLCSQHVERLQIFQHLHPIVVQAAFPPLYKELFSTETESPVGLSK
Experiment: ROR gamma coactivator peptide recruitment Alphascreen assay (RORγ-LBD binding to GRIP1 coactivator peptide)
Type: biochemical
Details: 5 nM human RORγ-LBD, 30 nM 7-β-hydroxycholesterol, 50 nM biotinylated GRIP1 coactivator peptide, overnight incubation at room temperature; read-out: result (pIC50, RORγ coactivator peptide recruitment Alphascreen assay) (converted)
Method in brief: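 His/Flag-tagged human RORγ-LBD (aa 262-518, E. coli-expressed, 5 nM) with agonist 7-β-hydroxycholesterol (30 nM) and biotinylated GRIP1 LXXLL peptide (50 nM) in HEPES pH 7.4 buffer, 2.5% DMSO. Compound 1-in-2 dilutions; Alphascreen bead signal read after overnight incubation at room temperature; pIC50 calculated.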

Structure (SMILES): CC(C)(CN(CC(=O)c1c(Cl)cccc1Cl)C(=O)c1cnn([C@H]2CC[C@](C)(C(=O)O)CC2)c1C(F)(F)F)C(F)(F)F [Example 893, trans-4-(4-((2-(2,6-dichlorophenyl)-2-oxoethyl)(3,3,3-trifluoro-2,2-dimethylpropyl)carbamoyl)-5-(trifluoromethyl)-1H-pyrazol-1-yl)-1-methylcyclohexanecarboxylic acid]
- IC50: 2.24 nM
